Data set [1] concerns the target E. coli GOT (GenBank Accession No. D90731.1) (Escherichia coli, UniProt P00509). The note with it: cited from earlier work.
The test system of data set [2] is traumatic brain injury (TBI). The data set can be described thus: Neurological severity score (NSS) after traumatic brain injury. The data set is classed as in vivo, rat. The note with it: for spontaneous partial recovery of rats submitted to TBI: summary statement.
Experimental: FIGS. 3A-C are graphs showing the effects of stress on the spontaneous recovery from traumatic brain injury. FIG. 3A illustrates TBI protocol and times of neurological severity score (NSS) assessment and removal of blood samples (asterisks) FIG. 4B is a histogram showing the effects of propranolol (10 mg/kg i.p) on the spontaneous recovery of rats submitted to TBI. Propranolol was injected 60 min before the infliction of TBI. The neurological severity scores were measured at 1 and 24 hours following TBI. The scores shown on the ordinate correspond to NSS averages+/−standard error of the mean. Control (n=33); propranolol (n=8). […] Propranolol was injected at a dose of 10 mg/kg i.p. 60 min before the infliction of TBI.
Animal anesthesia and well being—Experiments were conducted according to the recommendations of the Declarations of Helsinki and Tokyo and to the Guidelines for the Use of Experimental Animals of the European Community. The experiments were approved by the Animal Care Committees of Ben-Gurion University of the Negev and of the Weizmann Institute. Spontaneously breathing male Sprague Dawley rats weighing 200-300 g were anesthetized with a mixture of isoflurane (initial inspired concentration 2%) in 100% oxygen (1l/min). The rectal temperature was maintained at 37° C. using a heating pad and anesthesia was considered as sufficient for surgery when tail reflex was abolished. Catherization of the tail vein was carried out with a BD Neoflon 24 g catheter for allowing fluid infusion. Catherization of the tail artery was performed to allow blood sampling and determination of blood pressure and heart rate.
For data set [3], the system named is Glu in rat brain striatum. Briefly: Dual-probe microdialysis of Glu in rat brain striatum. The data set is classed as in vivo.
Experimental: Glu (1M) was continuously perfused at a rate of 2 μl/min from the delivery probe while perfusing artificial CSF at the same rate of 2 μl/min through the recovery probe for the entire duration of the experiments. […] Microdialysis of 1M Glu along with an intravenous Glu injection performed at t=100 min for 30 min (30 μmoles/min/100 g).
Artificial CSF was perfused at a rate of 2 μl/min through the two probes for a duration of 60 min. A 1 M solution of glutamate was then perfused through the delivery probe, at a rate of 2 μl/min for the entire duration of the experiment while perfusing artificial CSF at the same rate of 2 μl/min through a recovery probe, located at 1 mm from the delivery probe. Aliqouots of 40 μl were collected from the recovery probe every 20 min. The recovered Glu was measured using a spectrofluorometric assay (see below).
A 20 μl aliquot from microdialysate was added to 480 μl HG buffer containing 15 U of Glu dehydrogenase in 0.2 mM NAD, 0.3M glycine, 0.25 M hydrazine hydrate adjusted to pH 8.6 with 1N H2SO4. […] A Glu standard curve was established with concentrations ranging from 0-6 μM. All determinations were done at least in duplicates. The results are expressed as mean.+−SD.
The dual-probe brain microdialysis was used and perfused through the delivery probe inserted in the striatum of anesthetized rats a Glu solution while simultaneously perfusing artificial CSF through a recovery probe, located at 1 mm distance.
Data set [4] is described as follows: Blood osmolality and Na content before and after treatment. The data set is classed as in vivo, rat. Particulars: OxAc group. How it is done: This beneficial effect was not observed in the other groups for which the treatment includes the intravenous administration of Glu (data not shown). Since OxAc could act on brain edema as an osmotic agent, both the blood osmolality and Na content were measured before and after the 30 min-long treatments with OxAc or saline. There was no change in the saline group (303±3.5 mOsm (pre-treatment) vs 299±3 mOsm (post-treatment); Na: 140±1 meq/l vs 141±0.8 meq/l) but a very significant increase in the OxAc-group: (301±5 mOsm vs 338±8 mOsm; Na: 139±1 meq/l vs 164±3.4 meq/l). The hypernatriema and hyperosmolarity in the OxAc-treated rats can be accounted by the fact that OxAc is administered together with 2 Na equivalents. To determine that the NSS improvement and edema reduction in the OxAc-treated rats were not due to an osmotic “therapy”, rats were submitted after TBI to a hypertonic (3% NaCl) saline treatment. As the respective NSS values obtained at 60 min and 24 h post TBI were 15.6±3.6 and 12.4±5.3 (n=7; p=0.16), it was concluded that the beneficial effects of OxAc are not the result of an osmotic therapy.

Data set [5] relates to blood Glu levels. The data set can be described thus: Blood Glu levels following traumatic brain injury. The data set is classed as in vivo, rat. The method, then:
FIGS. 3A-C are graphs showing the effects of stress on the spontaneous recovery from traumatic brain injury. FIG. 3A illustrates TBI protocol and times of neurological severity score (NSS) assessment and removal of blood samples (asterisks) […] is a histogram showing the effects of propranolol (10 mg/kg i.p) on the spontaneous recovery of rats submitted to TBI. Propranolol was injected 60 min before the infliction of TBI. The neurological severity scores were measured at 1 and 24 hours following TBI. The scores shown on the ordinate correspond to NSS averages+/−standard error of the mean. Control (n=33); propranolol (n=8). Bonferroni's multiple comparison tests: saline 1 h vs saline 24 h p<0.001; saline 1 h vs propranolol pretreatment p>0.05; saline 1 h vs propranolol post-TBI p<0.001. FIG. 3C is a graph showing the effects of propranolol on the blood Glu (rectangles) and glucose (triangles) levels of rats submitted to TBI (n=8). Propranolol was injected at a dose of 10 mg/kg i.p. 60 min before the infliction of TBI. Glu and glucose levels were measured at 1, 60, 120 and 150 min following TBI. Glu levels were normalized to the value at t=1 min.;
FIGS. 4A-C are graphs depicting the effects of a blood Glu scavenger and of Glu on the recovery from TBI. Rats were injected intravenously for a total duration of 30 min (as in FIG. 3A) either with saline (30 μl/min/100 g), OxAc (30 μmoles/min/100 g) or OxAc+Glu (30 μmoles/min/100 g each). Twenty four and forty eight hours later, rats were submitted to various tests to establish the NSS. The scores shown above each column correspond to NSS averages with bars indicating the standard error of the mean. FIG. 4A—The groups from left to right are as follows: control saline (n=33) at 1 hour and 24 h; OxAc (n=32); Glu (n=32); OxAc+Glu (n=17) at 24 h and 48 h; One way ANOVA and Bonferroni multiple comparison tests: At 24 h: saline versus OxAc: p<0.05; saline versus Glu: p<0.01; Glu versus OxAc: p<0.001; saline versus OxAc+Glu: p>0.05. […] Glu levels are expressed as the percent of the basal Glu levels measured before TBI. […] Paired t test: 0 versus 60 min saline p=5.10^−4; 0 versus 60 min OxAc p=0.10^−4; 60 min versus 75 min saline: p=0.59; 60 min versus 75 min OxAc: p=3.10^−3; 75 min versus 90 min saline: p=0.89; 75 min versus 90 min OxAc: p=2.10^−4; C: Time course of the recovery from TBI in saline (n=7) and OxAc-treated (n=7) rats as monitored by NSS values presented here as mean±standard deviation. […]
Glu spectrofluorometric assay—Glu concentration was measured using the fluorometric method of Graham and Aprison. […] After incubation for 30-45 min at room temperature, the fluorescence was measured at 460 nm with excitation at 350 nm. […] The results are expressed as mean.+−SD. […]

The test system of data set [6] is blood Glu levels. The data set can be described thus: Blood Glu levels in rats after stress hormones, agonists and antagonists. Particulars: for effect on blood Glu levels: cortisol 25 mg/kg intraperitoneally, noradrenaline intravenously 30 min at 2 μg/100 g/min. The format is in vivo, rat. The method, then: FIGS. 2A-B are line graphs showing the effects of stress hormones and stress on blood glutamate and glucose levels. A: Cortisol (25 mg/kg) was injected intraperitoneally (triangles). Noradrenaline was infused intravenously for 30 min at 2 μg/100 g/min and 1 ml/100 g (rectangles). Adrenaline was infused intravenously for 30 min at […] and 1 ml/100 g (diamonds). The data presented are normalized to the respective basal blood values and shown as mean±standard deviation (n=3). B: Effects of an intracranial insertion of a microdialysis probe (without any fluid perfusion) on blood Glu (diamonds) and glucose (rectangles) levels. The data presented are normalized to the respective basal blood values and shown as mean±standard deviation (n=4);
The rats NSS were measured after 24 and 48 h The results are presented as mean±standard deviation; and
FIG. 8 is a graph showing the effect of an alpha 1 agonist, phenylephrine on blood Glu levels. Phenylephrine was infused intravenously for 30 min into rats (n=4) at a rate 0.25 mg/0.5 ml/100 g/30 min and the levels of blood Glu were determined at time=0 and every subsequent 30 min until 120 min. The results are presented as mean±standard deviation.
Glu spectrofluorometric assay—Glu concentration was measured using the fluorometric method of Graham and Aprison. A 20 μl aliquot from microdialysate was added to 480 μl HG buffer containing 15 U of Glu dehydrogenase in 0.2 mM NAD, 0.3M glycine, 0.25 M hydrazine hydrate adjusted to pH 8.6 with 1N H2SO4. After incubation for 30-45 min at room temperature, the fluorescence was measured at 460 nm with excitation at 350 nm. A Glu standard curve was established with concentrations ranging from 0-6 μM. All determinations were done at least in duplicates. The results are expressed as mean.+−SD.
Determination of Blood/plasma Glu—Whole blood (200 μl aliquot) were deproteinized by adding an equal volume of ice-cold 1 M perchloric acid (PCA) and then centrifuging at 10000×g for 10 min at 4° C. The pellet was discarded and supernatant collected, adjusted to pH 7.2 with 2M K2CO3 and, if needed, stored at −80° C. for later analysis using the above-described assay.
The rats NSS were measured after 24 and 48 h.
Phenylephrine was infused intravenously for 30 min into rats (n=4) at a rate 0.25 mg/0.5 ml/100 g/30 min and the levels of blood Glu were determined at time=0 and every subsequent 30 min until 120 min.

The next data set concerns blood glucose levels. The data set can be described thus: Blood glucose levels following traumatic brain injury. The format is in vivo, rat. The note with it: propranolol 10 mg/kg i.p. 60 min before TBI. The method, then: FIGS. 3A-C are graphs showing the effects of stress on the spontaneous recovery from traumatic brain injury. FIG. 3A illustrates TBI protocol and times of neurological severity score (NSS) assessment and removal of blood samples (asterisks) […] is a histogram showing the effects of propranolol (10 mg/kg i.p) on the spontaneous recovery of rats submitted to TBI. Propranolol was injected 60 min before the infliction of TBI. The neurological severity scores were measured at 1 and 24 hours following TBI. The scores shown on the ordinate correspond to NSS averages+/−standard error of the mean. Control (n=33); propranolol (n=8). […] Glu and glucose levels were measured at 1, 60, 120 and 150 min following TBI. […]
Animal anesthesia and well being—Experiments were conducted according to the recommendations of the Declarations of Helsinki and Tokyo and to the Guidelines for the Use of Experimental Animals of the European Community. […] Blood samples were analyzed for pH, pO2, pCO2, HCO3^−3. Glucose levels were measured with Accu-Chek sensor comfort. […] Following TBI, all rats were laid on their left side in order to recover from anesthesia and to check righting reflex and recovery time as part of the assessment of NSS which was evaluated 1 h after TBI (see below).

Where [7] appears, read: baseline before 30 min-long treatment.

E. coli GOT (GenBank Accession No. D90731.1), sequence (P00509 whole entry): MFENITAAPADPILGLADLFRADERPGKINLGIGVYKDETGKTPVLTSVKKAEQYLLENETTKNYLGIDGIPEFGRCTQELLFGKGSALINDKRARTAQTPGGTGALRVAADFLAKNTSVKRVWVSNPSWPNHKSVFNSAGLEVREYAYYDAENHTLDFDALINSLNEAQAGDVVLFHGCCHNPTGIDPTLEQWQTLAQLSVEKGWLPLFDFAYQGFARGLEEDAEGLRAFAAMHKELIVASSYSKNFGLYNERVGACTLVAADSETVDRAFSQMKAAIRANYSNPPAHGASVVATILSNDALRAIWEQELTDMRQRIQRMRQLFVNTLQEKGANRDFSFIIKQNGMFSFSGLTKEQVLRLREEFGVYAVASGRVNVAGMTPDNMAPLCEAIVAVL

Regarding `O=C(O)CCC(=O)C(=O)O` [2-ketoglutarate], the “affinity of E. coli GOT for the substance” value in data set [1] is given as “about 0.2 mM”.

Consider `N[C@@H](CCC(=O)O)C(=O)O` [Glu, L-glutamic acid], for which the “recovery from TBI (NSS at 24 h and 48 h)” value in data set [2] (intravenous 30 min, 30 μmoles/min/100 g (each), after TBI) was “recovered the least”. The “spontaneous partial recovery of rats submitted to TBI” value in data set [2] is “prevented”. Further, the “affinity of E. coli GOT for the substance” value in data set [1] is listed as “about 8 mM”. Besides, the “amounts of Glu reaching the recovery probe” value in data set [3] (1M Glu perfused, intravenous Glu at t=100 min for 30 min, 30 μmoles/min/100 g) is on record as “significantly more Glu reaches the recovery probe”.

In the case of `O=C(O)CC(=O)C(=O)O` [OxAc, oxaloacetate], in data set [4] (after 30 min-long treatment), the “blood Na content, post-treatment” value stood at 164±3.4 meq/l and the “blood osmolality, post-treatment” value was determined as 338±8 mOsm. In data set [4] (setting [7]), the “blood Na content, pre-treatment” value is recorded as 139±1 meq/l and the “blood osmolality, pre-treatment” value came to 301±5 mOsm. In addition, in the data set on blood Glu levels [5] (intravenous OxAc 30 μmoles/min/100 g, 60-90 min after TBI, relative to basal Glu before TBI), the “blood Glu levels after TBI” value is given as 40%. Besides, in the data set on blood Glu levels [5] (stress- and OxAc-induced decreases), the “duration of decrease of blood Glu after TBI” value was “at least 90 min”. Besides, in data set [3] (1M Glu perfused, intravenous OxAc at t=110 min for 30 min, 30 μmoles/min/100 g), the “further reduction of the amounts of Glu reaching the recovery probe” value is “up to 50 % of the peak value”.

`C[C@]12CCC(=O)C=C1CC[C@@H]1[C@@H]2[C@@H](O)C[C@@]2(C)[C@H]1CC[C@]2(O)C(=O)CO` [cortisol]: in the data set on blood Glu levels [6], the “effect on blood Glu levels” value is listed as “neither cortisol nor noradrenaline affected blood Glu levels”.

As to `COCCc1ccc(OCC(O)CNC(C)C)cc1` (stereo not drawn) [metaprolol], the “effect on the reduction of blood Glu levels” value in the data set on blood Glu levels [6] (metaprolol 15 mg/kg, naive rats) is on record as “strong effect”. The “reduction of in vivo rat blood glutamate” value in the data set on blood Glu levels [6] (metaprolol 15 mg/kg, naive rats, followed to 120 min) was determined as 40%.

Regarding `NC[C@H](O)c1ccc(O)c(O)c1` [noradrenaline], in the data set with blood Glu levels [6], the “effect on blood Glu levels” value is listed as “neither cortisol nor noradrenaline affected blood Glu levels”.

Turning to `CNC[C@H](O)c1cccc(O)c1` [phenylephrine], the “reduction of blood basal glutamate levels” value with blood Glu levels [6] (injected intravenously at 0.1 mg/100 gr rat body-weight/30 min) was 40%.

In the case of `CC(C)NCC(O)COc1cccc2ccccc12` (stereo not drawn) [propranolol], the “spontaneous NSS improvement at 24 h” value in data set [2] (propranolol 10 mg/kg i.p. 1 hour before TBI) is listed as “prevented the spontaneous NSS improvement”. Moreover, the NSS improvement result in data set [2] (propranolol administration delayed by 60 min after TBI) is on record as “caused the same NSS improvement as that found after saline treatment”. Also, the “spontaneous partial recovery of rats submitted to TBI” value in data set [2] is “prevented”. Besides, the “stress-induced changes of blood glucose levels” value in the data set on blood glucose levels was “prevented for at least 150 min the stress-induced changes of blood Glu and glucose levels”. The “stress-induced changes of blood Glu levels” value with blood Glu levels [5] (propranolol 10 mg/kg i.p. 60 min before TBI) was “prevented for at least 150 min the stress-induced changes of blood Glu and glucose levels”. Also, the “effect on blood glutamate levels” value in the data set on blood Glu levels [5] (propranolol, rats submitted to TBI (FIGS. 3A-C)) was “practically no effect”. Also, the “effect on Glu dual-probe microdialysis profile” value in data set [3] (propranolol pretreatment, data not shown) is on record as “did not affect”.

These data come from patent US20090304661A1, “Method And Composition For Proctecting Neuronal Tissue From Damage Induced By Elevated Glutamate Levels” (Yeda Research And Development Co. Ltd. at the Weizmann …, priority 2006, published 2009).
